Test system: 624824-186-R-J2-PDC multicell spheroids, viability
Assay: Anticancer human tumor 624824-186-R-J2-PDC patient-derived colon adenocarcinoma cell line growth inhibition [PI3K]
Details: for IC50: curve of first compound; for viability, T/C: stronger effect = lower value; active = viability on the fitted dose curve at most 10% of control; inactive = the rest
In short: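 High-throughput combination screen: PI3K inhibitors crossed with targeted small molecules on complex spheroids of tumor cells, HUVEC and MSCs at 37 degrees C, 5% CO2. Top concentration was at or near clinical Cmax (otherwise 10 microM), with half-log decrements.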

[1] = second compound 0.0316 µM, first compound 0.0316 µM
[2] = second compound 0.0316 µM, first compound 0.1 µM
[3] = second compound 0.0316 µM, first compound 0.316 µM
[4] = second compound 0.0316 µM, first compound 1 µM
[5] = second compound 0.0316 µM, first compound 3.16 µM
[6] = second compound 0.0316 µM, first compound 10 µM
[7] = second compound 0.1 µM, first compound 0.0316 µM
[8] = second compound 0.1 µM, first compound 0.1 µM
[9] = second compound 0.1 µM, first compound 0.316 µM
[10] = second compound 0.1 µM, first compound 1 µM
[11] = second compound 0.1 µM, first compound 3.16 µM
[12] = second compound 0.1 µM, first compound 10 µM
[13] = second compound 0.316 µM, first compound 0.0316 µM
[14] = second compound 0.316 µM, first compound 0.1 µM
[15] = second compound 0.316 µM, first compound 0.316 µM
[16] = second compound 0.316 µM, first compound 1 µM
[17] = second compound 0.316 µM, first compound 3.16 µM
[18] = second compound 0.316 µM, first compound 10 µM
[19] = second compound 1 µM, first compound 0.0316 µM
[20] = second compound 1 µM, first compound 0.1 µM
[21] = second compound 1 µM, first compound 0.316 µM
[22] = second compound 1 µM, first compound 1 µM
[23] = second compound 1 µM, first compound 3.16 µM
[24] = second compound 1 µM, first compound 10 µM
[25] = second compound 3.16 µM, first compound 0.0316 µM
[26] = second compound 3.16 µM, first compound 0.1 µM
[27] = second compound 3.16 µM, first compound 0.316 µM
[28] = second compound 3.16 µM, first compound 1 µM
[29] = second compound 3.16 µM, first compound 3.16 µM
[30] = second compound 3.16 µM, first compound 10 µM
[31] = second compound 10 µM, first compound 0.0316 µM
[32] = second compound 10 µM, first compound 0.1 µM
[33] = second compound 10 µM, first compound 0.316 µM
[34] = second compound 10 µM, first compound 1 µM
[35] = second compound 10 µM, first compound 3.16 µM
[36] = second compound 10 µM, first compound 10 µM
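Also: spheroids exposed to agents for 7 days before viability read.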
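For viability, T/C in this document: 100% = DMSO vehicle treated spheroids.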

CCCS(=O)(=O)Nc1ccc(F)c(C(=O)c2c[nH]c3ncc(-c4ccc(Cl)cc4)cc23)c1F + CC(Nc1ncnc2nc[nH]c12)c1cc2cccc(Cl)c2c(=O)n1-c1ccccc1
9.47 µM: IC50 (second compound 1 µM)
> 10 µM: IC50 (second compound 0.0316 µM) | IC50 (second compound 0.316 µM) | IC50 (second compound 3.16 µM)
inactive: viability, T/C [1] 90.2% | viability, T/C [2] 74.8% | viability, T/C [3] 92.9% | viability, T/C [4] 84% | viability, T/C [5] 133% | viability, T/C [6] 66.6% | viability, T/C [7] 108% | viability, T/C [8] 80.1% | viability, T/C [9] 90% | viability, T/C [10] 74.8% | viability, T/C [11] 128% | viability, T/C [12] 43% | viability, T/C [13] 113% | viability, T/C [14] 85.1% | viability, T/C [15] 72.8% | viability, T/C [16] 111% | viability, T/C [17] 130% | viability, T/C [18] 65.5% | viability, T/C [19] 83.5% | viability, T/C [20] 65.2% | viability, T/C [21] 81% | viability, T/C [22] 103% | viability, T/C [23] 125% | viability, T/C [24] 47.8% | viability, T/C [25] 110% | viability, T/C [26] 88.1% | viability, T/C [27] 70.1% | viability, T/C [28] 77.3% | viability, T/C [29] 109% | viability, T/C [30] 52.9% | viability, T/C [31] 112% | viability, T/C [32] 95% | viability, T/C [33] 80.3% | viability, T/C [34] 79.9% | viability, T/C [35] 83.4% | viability, T/C [36] 35.2%
6.82 µM: IC50 (second compound 10 µM)
8.61 µM: IC50 (second compound 0.1 µM)

CC(=O)c1c(C)c2cnc(Nc3ccc(N4CCNCC4)cn3)nc2n(C2CCCC2)c1=O + Cc1nc(NC(=O)N2CCCC2C(N)=O)sc1-c1ccnc(C(C)(C)C(F)(F)F)c1
> 0.1 µM: IC50 (second compound 0.0316 µM) | IC50 (second compound 0.1 µM) | IC50 (second compound 0.316 µM) | IC50 (second compound 1 µM) | IC50 (second compound 3.16 µM) | IC50 (second compound 10 µM)
inactive: viability, T/C (second compound 0.0316 µM, first compound 0.000316 µM) 81.6% | viability, T/C (second compound 0.0316 µM, first compound 0.001 µM) 72.8% | viability, T/C (second compound 0.0316 µM, first compound 0.00316 µM) 83.6% | viability, T/C (second compound 0.0316 µM, first compound 0.01 µM) 79.2% | viability, T/C [1] 74.1% | viability, T/C [2] 82.8% | viability, T/C (second compound 0.1 µM, first compound 0.000316 µM) 98.2% | viability, T/C (second compound 0.1 µM, first compound 0.001 µM) 105% | viability, T/C (second compound 0.1 µM, first compound 0.00316 µM) 93.6% | viability, T/C (second compound 0.1 µM, first compound 0.01 µM) 75.9% | viability, T/C [7] 91.4% | viability, T/C [8] 76.2% | viability, T/C (second compound 0.316 µM, first compound 0.000316 µM) 89% | viability, T/C (second compound 0.316 µM, first compound 0.001 µM) 80.6% | viability, T/C (second compound 0.316 µM, first compound 0.00316 µM) 85% | viability, T/C (second compound 0.316 µM, first compound 0.01 µM) 97.4% | viability, T/C [13] 88.3% | viability, T/C [14] 88.7% | viability, T/C (second compound 1 µM, first compound 0.000316 µM) 96.3% | viability, T/C (second compound 1 µM, first compound 0.001 µM) 78.9% | viability, T/C (second compound 1 µM, first compound 0.00316 µM) 88.5% | viability, T/C (second compound 1 µM, first compound 0.01 µM) 87.2% | viability, T/C [19] 82.5% | viability, T/C [20] 77.2% | viability, T/C (second compound 3.16 µM, first compound 0.000316 µM) 80.9% | viability, T/C (second compound 3.16 µM, first compound 0.001 µM) 83.6% | viability, T/C (second compound 3.16 µM, first compound 0.00316 µM) 91.1% | viability, T/C (second compound 3.16 µM, first compound 0.01 µM) 80.7% | viability, T/C [25] 85.1% | viability, T/C [26] 75.1% | viability, T/C (second compound 10 µM, first compound 0.000316 µM) 73.8% | viability, T/C (second compound 10 µM, first compound 0.001 µM) 67.5% | viability, T/C (second compound 10 µM, first compound 0.00316 µM) 72.1% | viability, T/C (second compound 10 µM, first compound 0.01 µM) 75.9% | viability, T/C [31] 66% | viability, T/C [32] 56.9%

Cn1nccc1Nc1nccc(-c2ccn(C(CO)c3ccc(Cl)c(F)c3)c(=O)c2)n1 (stereo unspecified) + Cc1nc(NC(=O)N2CCCC2C(N)=O)sc1-c1ccnc(C(C)(C)C(F)(F)F)c1
active: viability, T/C [36] 5.96%
inactive: viability, T/C [1] 88.2% | viability, T/C [2] 79.8% | viability, T/C [3] 72.2% | viability, T/C [4] 92% | viability, T/C [5] 95.7% | viability, T/C [6] 101% | viability, T/C [7] 68.3% | viability, T/C [8] 68.6% | viability, T/C [9] 78.5% | viability, T/C [10] 81.4% | viability, T/C [11] 108% | viability, T/C [12] 83.2% | viability, T/C [13] 90.1% | viability, T/C [14] 72.8% | viability, T/C [15] 74% | viability, T/C [16] 91.9% | viability, T/C [17] 96.3% | viability, T/C [18] 81.9% | viability, T/C [19] 82.9% | viability, T/C [20] 79% | viability, T/C [21] 65.5% | viability, T/C [22] 74.9% | viability, T/C [23] 76.3% | viability, T/C [24] 52.3% | viability, T/C [25] 80.5% | viability, T/C [26] 61.6% | viability, T/C [27] 65% | viability, T/C [28] 54.6% | viability, T/C [29] 44.2% | viability, T/C [30] 37.3% | viability, T/C [31] 66.4% | viability, T/C [32] 58.6% | viability, T/C [33] 47.8% | viability, T/C [34] 37.8% | viability, T/C [35] 19.2%
1.56 µM: IC50 (second compound 3.16 µM)
0.276 µM: IC50 (second compound 10 µM)
> 10 µM: IC50 (second compound 0.0316 µM) | IC50 (second compound 0.1 µM) | IC50 (second compound 0.316 µM) | IC50 (second compound 1 µM)

— PubChem BioAssay AID1963975 (Molecular Pharmacology Branch, DTP, NCI, 2024)
